“Also recorded” adds a separate entry of the source. Where two headings read alike, the source gives them in different places.
Key:
adult human hepatocytes = test: Adult human primary hepatocytes in vitro culture, liver gene expression after 2 days; type: cell-based
From the text: RNA was extracted using Zymo RNA extraction kit. RT-quantitative PCR was used to quantify gene expression. […]
The signals that promote hepatocyte specification and/or maturation were considered to also ameliorate such loss of liver maturity and gene expression during in vitro culture. Thus, the signaling pathways that appear to be dysregulated were investigated including Notch, TGFb, Wnt, as well as other major signaling pathways including estrogen, BMP, FGF, PKA/cAMP pathways, in order to determine the effects on liver genes after 2 days.

hPSC-derived LB cells = test: Hepatic progenitor specification from hPSC-derived LB cells (days 7-12), liver gene expression; conditions: for subsequent expression of liver genes: brief treatment of LB cells for 2 days
Method: (§1) mTeSR1-grown hPSCs were cultured and differentiated as follows: • a) hPSCs cells were seeded at 1:12 as small clumps using Accutase (Millipore, Cat#SCR005) and Geltrex (Lifetech, Cat#A1413302). • b) Anterior Primitive Streak (day 1) was specified using Activin A (100 ng/ml), CHIR99021 (3 μM), PI-103 (50 nM) and Fgf2 (10 ng/ml) in serumless CDM2 basal medium for 24 hr. • c) Activin A (100 ng/ml) and DM3189 (250 nM) and PI-103 (50 nM) were added in the same basal medium for 24 hr to induce Definitive Endoderm (DE) (day 2). • d) DE was then patterned into PFG by using A83-01 (1 μM), RA (2 μM), BMP4 (30 ng/ml) and Fgf2 (10 ng/ml) in CDM KOSR basal media for another 24 hrs. • e) PFG was further differentiated to LB progenitors using Activin A (100 ng/ml), 8-bromo-CAMP (1 mM) and BMP4 (10 ng/ml) in CDM KOSR basal media for 3 days (day 4 to 6). • f) LB progenitors were treated with BMP4 (10 ng/ml), Oncostatin M (10 ng/ml), Dexamethasone ([…]), DAPT, C59 (1 μM) or RO4919097 (2 μM), forskolin ([…]), human recombinant insulin (10 μg/ml), ascorbic acid-2 phosphate (200 μg/ml), L-gluthathione ([…]) and amino acid concentrate and in IMDM/F12 media for the next 6 days (day 7 to 12) to induce hepatic progenitors. • g) Hepatic progenitors were treated with Dexamethasone (10 μM), RO4929097 (2 μM) or DAPT (10 μM), Forskolin (10 μM), human recombinant insulin (10 μg/ml), ascorbic acid-2 phosphate (200 μg/ml) in IMDM/F12 media for 6 days (day 13 to 18) to generate hepatocyte-like cells. Intra-Splenic Transplantation into FRG^−/− Mice
(§2) RNA was extracted using Zymo RNA extraction kit. RT-quantitative PCR was used to quantify gene expression. Primer sequences were designed by NCBI Primer Tool and primer specificity and linearity was tested before usage for gene expression analyses.
To identify the signals that regulate the progression of the LB progenitors from an ALB- to a more differentiated ALB+ state, multiple signaling pathways were systematically screened for their effects on ALB expression (including FGF, WNT, Notch, HGF, cAMP/PKA, TGFβ, and BMP).

PFG cells = test: Liver bud (LB) specification from posterior foregut, days 4-6, gene expression; type: cell-based, human; conditions: for subsequent expression of ALB: treatment during LB specification, then hepatic specification medium; for LB gene expression / expansion: addition at the LB specification stage
Method: as §1, §2
The signaling pathways, including Retinoic, Nodal/Activin, Bmp, PKA, FGF and Wnt signaling, were explored to determine if they could directly regulate LB specification.

hPSC-derived DE = test: Foregut specification: treatment of hPSC-derived DE (day 3), downstream gene expression by RT-qPCR; type: cell-based, human
From the text: RT-quantitative PCR was used to quantify gene expression. […] During liver development, populations of definitive endoderm cells are first patterned along the anterior-posterior axis to form either the foregut or mid/hindgut. In the present invention the effects of signaling inhibition on the developmental competence of the foregut cells to give rise to the liver bud (LB) cells was examined. Competence is defined as the capacity of one stem cell or progenitor cell to differentiate into its daughter cell type. For example, the posterior foregut is competent when it could give rise to its daughter cell types such as the pancreatic endoderm and LB cells.

[1] = on removal of the component from a cocktail of signaling factors
[2] = subtraction from BCDEFV cocktail, day 10
[3] = 24 h during foregut specification

Nc1ncnc2c1nc(Br)n2[C@@H]1O[C@@H]2COP(=O)(O)O[C@H]2[C@H]1O [8-bromoCAMP]
periportal gene expression (adult human hepatocytes): promote | perivenous gene expression (e.g. members of the CYP1, CYP2 and CYP3 families) (adult human hepatocytes): reducing | expression of cytochrome genes (adult human hepatocytes; [1]): increased | expression of functional liver enzymes such as FAH, PAH, HGD, HPD, TAT, CPS1, CYP3A4 (hPSC-derived LB cells; days 9-12): enhances | hepatic progenitor marker ALB expression (hPSC-derived LB cells; days 9-12): promotes | expression of LB markers including AFP, CEBPA, HNF6, HNF1B, PROX1, TBX3 and HNF4A (PFG cells; during LB specification): significantly increase

Cc1cccc(-c2nn(C(=S)Nc3ccccc3)cc2-c2ccnc3ccccc23)n1 [A83-01, 3-(6-Methyl-2-pyridinyl)-N-phenyl-4-(4-quinolinyl)-1H-pyrazole-1-carbothioamide]
expression of CYP1A1, CYP1A2, CYP2C19, CYP2C9, CYP3A4, CYP3A5, CYP3A7 and CYP7A1 (adult human hepatocytes; TGFβ inhibition): increased | subsequent expression of ALB (PFG cells): reduces

O=C1O[C@H]([C@@H](O)CO)C(O)=C1OP(=O)(O)O [AA2P, L-ascorbic acid 2-phosphate]
expression of PAH, HGD, HPD, TAT, MAI, FAH, CYP3A4, ALB and CPS1 (hPSC-derived LB cells): enhancement | liver maturation (hPSC-derived LB cells; days 7 to 12 and days 13 to 16): significantly promoted

c1ccc2c(-c3cnn4cc(-c5ccc(N6CCNCC6)cc5)cnc34)ccnc2c1 [BM3189]
ALB expression (hPSC-derived LB cells; added to hPSC-derived LB cells): decreased

Cc1cnc(-c2cnc(NCCNc3ccc(C#N)cn3)nc2-c2ccc(Cl)cc2Cl)[nH]1 [CHIR99201, 6-[[2-[[4-(2,4-dichlorophenyl)-5-(5-methyl-1H-imidazol-2-yl)-2pyrimidinyl]amino]ethyl]amino]-3-pyridinecarbonitrile]
GLT and GS expression (adult human hepatocytes; [1]): decrease | expression of periportal genes like ARG1, SERDH, CPS1 (adult human hepatocytes; [1]): increased | ALB expression (hPSC-derived LB cells; [2]): inhibits | expansion and self-renewal of LB progenitors (PFG cells): enhance | LB gene expression (PFG cells): higher | expansion (PFG cells): promotes

C[C@H](NC(=O)Cc1cc(F)cc(F)c1)C(=O)NC(C(=O)OC(C)(C)C)c1ccccc1 (some centres unmarked) [DAPT]
expression of the majority of cytochrome enzymes (CYP1A1, CYP1A2, CYP2C19, CYP2C9, CYP2D6, CYP2E1, CYP3A4, CYP3A5, CYP3A7, CYP7A1) (adult human hepatocytes): upregulated | SOX9 expression (hPSC-derived LB cells; Notch inhibition): reducing | ALB expression (hPSC-derived LB cells; added to hPSC-derived LB cells): enhance

C=C[C@@]1(C)CC(=O)[C@]2(O)[C@@]3(C)[C@@H](O)CCC(C)(C)[C@@H]3[C@H](O)[C@H](OC(C)=O)[C@@]2(C)O1 [Forskolin]
expression of functional liver enzymes such as FAH, PAH, HGD, HPD, TAT, CPS1, CYP3A4 (hPSC-derived LB cells): enhances

CC(=O)Nc1cccc(-n2c(=O)n(C3CC3)c(=O)c3c(Nc4ccc(I)cc4F)n(C)c(=O)c(C)c32)c1 [GSK1120212]
subsequent expression of liver genes (hPSC-derived LB cells): higher

Cc1ccc2nc(NC(=O)CSc3nc4c(c(=O)n3-c3ccccc3)SCC4)sc2c1 [IWP2, N-(6-Methyl-2-benzothiazolyl)-2-[(3,4,6,7-tetrahydro-4-oxo-3-phenylthieno[3,2-d]pyrimidin-2-yl)thio]-acetamide]
downstream LB gene expression (AFP, CEBPA, TBX3, HNF1B) (hPSC-derived DE; [3]): severely reduces | expression of MHG markers CDX2 and EVX1 (hPSC-derived DE; [3]): reduces | HNF6, PROX1 and HEX expression (hPSC-derived DE; Wnt inhibition during foregut specification): upregulated

CCN(CC)CCCCNc1ncc2cc(-c3cc(OC)cc(OC)c3)c(NC(=O)NC(C)(C)C)nc2n1 [PD173074, N-[2-[[4-(Diethylamino)butyl]amino]-6-(3,5-dimethoxyphenyl)pyrido[2,3-d]pyrimidin-7-yl]-N′-(1,1-dimethylethyl)urea]
subsequent expression of liver genes (hPSC-derived LB cells): higher

O=C(NOC[C@H](O)CO)c1ccc(F)c(F)c1Nc1ccc(I)cc1F [PD0325901, N-[(2R)-2,3-Dihydroxypropoxy]-3,4-difluoro-2-[(2-fluoro-4-iodophenyl)amino]-benzamide]
LB gene expression (HNF1A, HNF6, PROX1, TBX3, HNF4A) (PFG cells; inhibition of FGF/MAPK signaling): reduced

CC(C)(C(=O)NCC(F)(F)C(F)(F)F)C(=O)N[C@@H]1C(=O)Nc2ccccc2-c2ccccc21 [R04929097, Propanediamide, N1-[(7S)-6,7-dihydro-6-oxo-5H-dibenz[b,d]azepin-7-yl]-2,2-dimethyl-N3-(2,2,3,3,3-pentafluoropropyl)-]
expression of the majority of cytochrome enzymes (CYP1A1, CYP1A2, CYP2C19, CYP2C9, CYP2D6, CYP2E1, CYP3A4, CYP3A5, CYP3A7, CYP7A1) (adult human hepatocytes): upregulated | SOX9 expression (hPSC-derived LB cells; Notch inhibition): reducing | ALB expression (hPSC-derived LB cells; added to hPSC-derived LB cells): enhance

Nc1ncnc2c1ncn2[C@@H]1O[C@@H]2CO[P@@](O)(=S)O[C@H]2[C@H]1O [RpCAMP]
p450 cytochrome expression (adult human hepatocytes): promoted

Cc1cccc(-c2[nH]c(C(C)(C)C)nc2-c2ccc3c(c2)OCO3)n1 [SB505124, 2-[4-(1,3-Benzodioxol-5-yl)-2-(1,1-dimethylethyl)-1H-imidazol-5-yl]-6-methyl-pyridine]
effect on the cytochrome expression compared with A83-01 (adult human hepatocytes): stronger | expression of CYP1A1, CYP1A2, CYP2C19, CYP2C9, CYP3A4, CYP3A5, CYP3A7 and CYP7A1 (adult human hepatocytes): increased | competence of hepatic progenitors to generate hepatocyte-like cells (hPSC-derived LB cells): reduces | expression of liver genes such as ALB, CYP3A4, CPS1, FAH, TAT, PAH, HGD, HPD and MAI (hPSC-derived LB cells): lower | later functional liver gene expression of TAT, FAH, PAH, HGD, HPD, and MAI (hPSC-derived LB cells; brief treatment on days 7-8): higher | subsequent expression of ALB (PFG cells): reduces

C[N+](C)(C)CCO.[Cl-] [choline chloride]
expression of ALB, FAH, PAH, TAT, CYP3A4, CYP3A7, AAT, THR, FBA, FBB, FBG and TBX3 (hPSC-derived LB cells; higher levels of phospholipid precursor): increases

Nc1ncnc2c1ncn2[C@@H]1O[C@@H]2COP(O)(=S)O[C@H]2[C@H]1O (some centres unmarked) [spCAMP]
periportal gene expression (adult human hepatocytes): promote | perivenous gene expression (e.g. members of the CYP1, CYP2 and CYP3 families) (adult human hepatocytes): reducing

FGF2: activator of FGF signaling
ALB expression (hPSC-derived LB cells; 20 ng/ml): reduction | SOX9 expression (hPSC-derived LB cells; 20 ng/ml): slightly increase | ALB expression (hPSC-derived LB cells; [2]): inhibits | subsequent liver bud gene expression of CEBPA, HNF1A, HNF6, PROX1 (hPSC-derived DE; provided to DE cells during foregut specification): increase | expansion and self-renewal of LB progenitors (PFG cells): enhance | LB gene expression of HNF1A, HNF6, PROX1, TBX3, HNF4A, AFP, CEBPA, HNF1B (PFG cells; addition in CDM KOSR base media): did not benefit

HGF: Hepatocyte growth factor
ALB expression (hPSC-derived LB cells; added to hPSC-derived LB cells): promotes

Wnt3A
perivenous xenobiotic gene expression (e.g. CYP3A4, CYP3A5 and CYP3A7) (adult human hepatocytes): increased | LB gene expression (PFG cells): higher | expansion (PFG cells): promotes

B1: BMP4: activator of BMP signaling (protein, UniProt P12644 293-408, looked up)
Bone morphogenetic protein 4: SPKHHSQRARKKNKNCRRHSLYVDFSDVGWNDWIVAPPGYQAFYCHGDCPFPLADHLNSTNHAIVQTLVNSVNSSIPKACCVPTELSAISMLYLDEYDKVVLKNYQEMVVEGCGCR
ALB expression (hPSC-derived LB cells; added to hPSC-derived LB cells): promote; also recorded: increased | competence to generate LB cells (hPSC-derived DE; treatment during foregut specification): mildly enhanced | LB specification (PFG cells): promotes | dose that maximally induces expression of LB genes (HNF4A, PROX1, AFP, TBX3, HNF1B, HNF1A, HNF6, CEBPA) (PFG cells): 30 to 40 ng/mL | pancreatic specification (PFG cells): inhibited

B2: OSM: Oncostatin M (protein, UniProt P13725 26-221, looked up)
Oncostatin-M: AAIGSCSKEYRVLLGQLQKQTDLMQDTSRLLDPYIRIQGLDVPKLREHCRERPGAFPSEETLRGLGRRGFLQTLNATLGCVLHRLADLEQRLPKAQDLERSGLNIEDLEKLQMARPNILGLRNNIYCMAQLLDNSDTAEPTKAGRGASQPPTPTPASDAFQRKLEGCRFLHGYHRFMHSVGRVFSKWGESPNRSRR
ALB expression (hPSC-derived LB cells; added to hPSC-derived LB cells): promoted

Source: US20170304369A1, “METHODS OF DIFFERENTIATING STEM CELLS INTO LIVER CELL LINEAGES” (Agency for Science, Technology and Research, priority 2014, published 2017)
